Laboratory results taken from patent US12077503B2, “Substituted cyclic amides and their use as herbicides” (FMC CORPORATION, priority 2015, dated 2024).

Legend:
Type in all cases: in vivo
[1] = tested on: Galium (catchweed bedstraw, Galium aparine); test: Test A postemergence; details: Galium, post-emergence, 240 h, 125 g ai/ha, Postemergence; visual injury after approximately 10 d; 0 to 100 scale where 0 is no effect and 100 is complete control; read-out: Plant response rating, Galium
How it was run: (§1)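 Each rating is a visual injury score from 0 to 100 given about 10 d after treatment, judged against untreated controls kept alongside in the greenhouse. In loam soil–sand blend, seeds got a preemergence directed soil spray, while postemergence plants were 2 to 10 cm tall at spraying.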

[2] = tested on: ragweed (common ragweed, Ambrosia elatior); test: Test A postemergence; details: Ambrosia artemisiifolia, post-emergence, 240 h, 125 g ai/ha, Postemergence; visual injury after approximately 10 d; 0 to 100 scale where 0 is no effect and 100 is complete control; read-out: Plant response rating, Ragweed
How it was run: as §1

[3] = tested on: giant foxtail (Setaria faberii); test: Test A postemergence; details: Setaria faberi, post-emergence, 240 h, 125 g ai/ha, Postemergence; visual injury after approximately 10 d; 0 to 100 scale where 0 is no effect and 100 is complete control; read-out: Plant response rating, Foxtail, Giant
How it was run: as §1

[4] = tested on: pigweed (Amaranthus retroflexus); test: Test A postemergence; details: Amaranthus retroflexus, post-emergence, 240 h, 125 g ai/ha, Postemergence; visual injury after approximately 10 d; 0 to 100 scale where 0 is no effect and 100 is complete control; read-out: Plant response rating, Pigweed
How it was run: as §1

[5] = tested on: barnyardgrass (Echinochloa crus-galli); test: Test A postemergence; details: Echinochloa crus-galli, post-emergence, 240 h, 125 g ai/ha, Postemergence; visual injury after approximately 10 d; 0 to 100 scale where 0 is no effect and 100 is complete control; read-out: Plant response rating, Barnyardgrass
How it was run: as §1

corn (Zea mays) = test: Test A postemergence; details: Zea mays, post-emergence, 240 h, 125 g ai/ha, Postemergence; visual injury after approximately 10 d; 0 to 100 scale where 0 is no effect and 100 is complete control
How it was run: as §1

[6] = tested on: wheat (Triticum aestivum); test: Test A postemergence; details: Triticum aestivum, post-emergence, 240 h, 125 g ai/ha, Postemergence; visual injury after approximately 10 d; 0 to 100 scale where 0 is no effect and 100 is complete control; read-out: Plant response rating, Wheat
How it was run: as §1

[7] = tested on: ryegrass, Italian (Italian ryegrass, Lolium multiflorum); test: Test A postemergence; details: Lolium multiflorum, post-emergence, 240 h, 125 g ai/ha, Postemergence; visual injury after approximately 10 d; 0 to 100 scale where 0 is no effect and 100 is complete control; read-out: Plant response rating, Ryegrass, Italian
How it was run: as §1

[8] = tested on: blackgrass (Alopecurus myosuroides); test: Test A postemergence; details: Alopecurus myosuroides, post-emergence, 240 h, 125 g ai/ha, Postemergence; visual injury after approximately 10 d; 0 to 100 scale where 0 is no effect and 100 is complete control; read-out: Plant response rating, Blackgrass
How it was run: as §1

Kochia (Kochia scoparia) [9] = test: Test A postemergence; details: Bassia scoparia, post-emergence, 240 h, 125 g ai/ha, Postemergence; visual injury after approximately 10 d; 0 to 100 scale where 0 is no effect and 100 is complete control; read-out: Plant response rating, Kochia
How it was run: as §1

[10] = tested on: ragweed (common ragweed, Ambrosia elatior); test: Test A preemergence; details: Ambrosia artemisiifolia, pre-emergence, 240 h
How it was run: as §1

[11] = tested on: giant foxtail (Setaria faberii); test: Test A preemergence; details: Setaria faberi, pre-emergence, 240 h
How it was run: as §1

[12] = tested on: pigweed (Amaranthus retroflexus); test: Test A preemergence; details: Amaranthus retroflexus, pre-emergence, 240 h
[13] = tested on: barnyardgrass (Echinochloa crus-galli); test: Test A preemergence; details: Echinochloa crus-galli, pre-emergence, 240 h
How it was run: as §1

[14] = tested on: ryegrass, Italian (Italian ryegrass, Lolium multiflorum); test: Test A preemergence; details: Lolium multiflorum, pre-emergence, 240 h
How it was run: as §1

Kochia (Kochia scoparia) [15] = test: Test A preemergence; details: Bassia scoparia, pre-emergence, 240 h
How it was run: as §1

[16] = tested on: ducksalad (Heteranthera limosa); test: Test B flooded paddy test; details: Heteranthera limosa, Flood, 250 g ai/ha; scale of 0 to 100 where 0 is no effect and 100 is complete control; read-out: Ducksalad plant response rating
How it was run: (§2)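 Percent control, visually estimated after 13–15 d in the greenhouse on a 0–100 basis, compares treated pots with untreated ones; compound was put into paddy water 3 cm above the soil when plants had two leaves.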

[17] = tested on: sedge, umbrella (small-flower umbrella sedge, Cyperus difformis); test: Test B flooded paddy test; details: Cyperus difformis, Flood, 250 g ai/ha; scale of 0 to 100 where 0 is no effect and 100 is complete control; read-out: Sedge, Umbrella plant response rating
How it was run: as §2

[18] = tested on: barnyardgrass (Echinochloa crus-galli); test: Test B flooded paddy test; details: Echinochloa crus-galli, Flood, 250 g ai/ha; scale of 0 to 100 where 0 is no effect and 100 is complete control; read-out: Barnyardgrass plant response rating
How it was run: as §2

rice (Oryra sativa) = test: Test B flooded paddy test; details: Oryza sativa, Flood, 250 g ai/ha; scale of 0 to 100 where 0 is no effect and 100 is complete control; read-out: Rice plant response rating
How it was run: as §2

O=C1NC[C@H](c2csc(C(F)(F)F)c2)[C@H]1C(=O)Nc1cccc(F)c1F [Compound 957]
100%: pest or weed control at 500 g/ha ([13]; 500 g ai/ha, preemergence, visual injury rating about 10 d after treatment, 0 to 100 scale (0 no effect, 100 complete control), read-out: Barnyardgrass plant response rating) | pest or weed control at 250 g/ha [16]
70%: pest or weed control at 500 g/ha ([11]; 500 g ai/ha, preemergence, visual injury rating about 10 d after treatment, 0 to 100 scale (0 no effect, 100 complete control), read-out: Foxtail, Giant plant response rating) | pest or weed control at 125 g/ha ([13]; 125 g ai/ha, Preemergence, visual injury rating after approximately 10 d, read-out: Barnyardgrass plant response rating (0 to 100 scale, 0 is no effect, 100 is complete control))
40%: pest or weed control at 125 g/ha [1] | pest or weed control at 500 g/ha ([14]; 500 g ai/ha, preemergence, visual injury rating about 10 d after treatment, 0 to 100 scale (0 no effect, 100 complete control), read-out: Ryegrass, Italian plant response rating)
0%: pest or weed control at 125 g/ha [2] | pest or weed control at 125 g/ha [3] | pest or weed control at 125 g/ha [4] | Corn plant response rating (crop injury, 0 = no effect, 100 = complete kill) at 125 g/ha (corn (Zea mays)) | plant injury at 125 g/ha [6] | pest or weed control at 125 g/ha ([10]; 125 g ai/ha, Preemergence, visual injury rating after approximately 10 d, read-out: Ragweed plant response rating (0 to 100 scale, 0 is no effect, 100 is complete control)) | pest or weed control at 125 g/ha ([14]; 125 g ai/ha, Preemergence, visual injury rating after approximately 10 d, read-out: Ryegrass, Italian plant response rating (0 to 100 scale, 0 is no effect, 100 is complete control)) | pest or weed control at 250 g/ha [17] | pest or weed control at 250 g/ha (rice (Oryra sativa))
30%: pest or weed control at 500 g/ha ([10]; 500 g ai/ha, preemergence, visual injury rating about 10 d after treatment, 0 to 100 scale (0 no effect, 100 complete control), read-out: Ragweed plant response rating) | pest or weed control at 125 g/ha (Kochia (Kochia scoparia) [15]; 125 g ai/ha, Preemergence, visual injury rating after approximately 10 d, read-out: Kochia plant response rating (0 to 100 scale, 0 is no effect, 100 is complete control)) | pest or weed control at 250 g/ha [18]
20%: pest or weed control at 125 g/ha [7] | pest or weed control at 125 g/ha [8] | pest or weed control at 125 g/ha (Kochia (Kochia scoparia) [9]) | pest or weed control at 125 g/ha ([11]; 125 g ai/ha, Preemergence, visual injury rating after approximately 10 d, read-out: Foxtail, Giant plant response rating (0 to 100 scale, 0 is no effect, 100 is complete control)) | pest or weed control at 125 g/ha ([12]; 125 g ai/ha, Preemergence, visual injury rating after approximately 10 d, read-out: Pigweed plant response rating (0 to 100 scale, 0 is no effect, 100 is complete control)) | pest or weed control at 500 g/ha ([12]; 500 g ai/ha, preemergence, visual injury rating about 10 d after treatment, 0 to 100 scale (0 no effect, 100 complete control), read-out: Pigweed plant response rating)
80%: pest or weed control at 125 g/ha [5] | pest or weed control at 500 g/ha (Kochia (Kochia scoparia) [15]; 500 g ai/ha, preemergence, visual injury rating about 10 d after treatment, 0 to 100 scale (0 no effect, 100 complete control), read-out: Kochia plant response rating)
